Results reported in patent publication US20240360075A1, “N-SUBSTITUTED C6 CYCLYL CARBOXAMIDE COMPOUNDS AND USES THEREOF” (ALCON INC., priority 2023, published 2024).
Read-outs that look alike come from different tables or passages of the source. Each block holds one compound with its values, some of them ahead of it.

Assays:
[1] = molecular target: mouse cold-menthol receptor TRPM8 (Mus musculus, UniProt Q8R4D5); details: described by Behrendt et al.; cited from earlier work
[2] = molecular target: TRPM8 (Mus musculus, UniProt Q8R4D5); details: TRPV1 antagonists, described by Behrendt et al.; read-out: IC50 to block the response of TRPM8 to menthol; cited from earlier work
Sequence of TRPM8 (Mus musculus, UniProt Q8R4D5) (Q8R4D5 whole entry): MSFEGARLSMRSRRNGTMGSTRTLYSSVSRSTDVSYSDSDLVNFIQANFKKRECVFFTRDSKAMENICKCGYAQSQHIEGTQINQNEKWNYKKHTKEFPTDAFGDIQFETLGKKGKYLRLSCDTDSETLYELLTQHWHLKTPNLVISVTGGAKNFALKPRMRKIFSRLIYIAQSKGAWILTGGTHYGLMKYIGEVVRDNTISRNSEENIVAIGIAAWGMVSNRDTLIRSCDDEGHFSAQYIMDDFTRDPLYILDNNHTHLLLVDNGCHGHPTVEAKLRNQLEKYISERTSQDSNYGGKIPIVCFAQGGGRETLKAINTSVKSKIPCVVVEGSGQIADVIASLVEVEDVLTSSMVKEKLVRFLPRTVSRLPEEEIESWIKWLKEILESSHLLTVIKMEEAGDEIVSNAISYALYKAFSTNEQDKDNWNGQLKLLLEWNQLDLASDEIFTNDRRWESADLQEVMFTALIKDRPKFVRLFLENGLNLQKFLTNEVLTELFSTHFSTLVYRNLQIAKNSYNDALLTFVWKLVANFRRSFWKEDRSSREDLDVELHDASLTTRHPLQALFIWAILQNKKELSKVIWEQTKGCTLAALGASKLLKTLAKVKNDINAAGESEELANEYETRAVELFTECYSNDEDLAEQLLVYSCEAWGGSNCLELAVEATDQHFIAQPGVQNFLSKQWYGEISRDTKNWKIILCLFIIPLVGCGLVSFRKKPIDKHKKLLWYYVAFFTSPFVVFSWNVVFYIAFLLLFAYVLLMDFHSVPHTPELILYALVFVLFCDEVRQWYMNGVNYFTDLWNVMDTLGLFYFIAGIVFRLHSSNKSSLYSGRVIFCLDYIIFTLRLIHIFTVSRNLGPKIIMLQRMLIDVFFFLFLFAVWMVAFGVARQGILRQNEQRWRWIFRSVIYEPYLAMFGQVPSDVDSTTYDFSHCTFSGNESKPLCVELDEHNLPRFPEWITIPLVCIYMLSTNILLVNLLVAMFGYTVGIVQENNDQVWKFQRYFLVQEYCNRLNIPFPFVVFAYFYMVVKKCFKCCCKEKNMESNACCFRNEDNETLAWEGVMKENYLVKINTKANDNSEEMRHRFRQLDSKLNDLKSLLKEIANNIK

[3] = molecular target: T1, TRPM8 (Homo sapiens, UniProt Q7Z2W7); test: TRPM8 Human Transient Potential Ion Channel Cell Based Agonist Calcium Flux Assay (Eurofins Cerep item #3316); details: for Emax: read-out: Percent Agonist; for EC50: room temperature
T1 construct: purchased Eurofins (Cerep) item #3316
T1 sequence (Q7Z2W7 whole entry): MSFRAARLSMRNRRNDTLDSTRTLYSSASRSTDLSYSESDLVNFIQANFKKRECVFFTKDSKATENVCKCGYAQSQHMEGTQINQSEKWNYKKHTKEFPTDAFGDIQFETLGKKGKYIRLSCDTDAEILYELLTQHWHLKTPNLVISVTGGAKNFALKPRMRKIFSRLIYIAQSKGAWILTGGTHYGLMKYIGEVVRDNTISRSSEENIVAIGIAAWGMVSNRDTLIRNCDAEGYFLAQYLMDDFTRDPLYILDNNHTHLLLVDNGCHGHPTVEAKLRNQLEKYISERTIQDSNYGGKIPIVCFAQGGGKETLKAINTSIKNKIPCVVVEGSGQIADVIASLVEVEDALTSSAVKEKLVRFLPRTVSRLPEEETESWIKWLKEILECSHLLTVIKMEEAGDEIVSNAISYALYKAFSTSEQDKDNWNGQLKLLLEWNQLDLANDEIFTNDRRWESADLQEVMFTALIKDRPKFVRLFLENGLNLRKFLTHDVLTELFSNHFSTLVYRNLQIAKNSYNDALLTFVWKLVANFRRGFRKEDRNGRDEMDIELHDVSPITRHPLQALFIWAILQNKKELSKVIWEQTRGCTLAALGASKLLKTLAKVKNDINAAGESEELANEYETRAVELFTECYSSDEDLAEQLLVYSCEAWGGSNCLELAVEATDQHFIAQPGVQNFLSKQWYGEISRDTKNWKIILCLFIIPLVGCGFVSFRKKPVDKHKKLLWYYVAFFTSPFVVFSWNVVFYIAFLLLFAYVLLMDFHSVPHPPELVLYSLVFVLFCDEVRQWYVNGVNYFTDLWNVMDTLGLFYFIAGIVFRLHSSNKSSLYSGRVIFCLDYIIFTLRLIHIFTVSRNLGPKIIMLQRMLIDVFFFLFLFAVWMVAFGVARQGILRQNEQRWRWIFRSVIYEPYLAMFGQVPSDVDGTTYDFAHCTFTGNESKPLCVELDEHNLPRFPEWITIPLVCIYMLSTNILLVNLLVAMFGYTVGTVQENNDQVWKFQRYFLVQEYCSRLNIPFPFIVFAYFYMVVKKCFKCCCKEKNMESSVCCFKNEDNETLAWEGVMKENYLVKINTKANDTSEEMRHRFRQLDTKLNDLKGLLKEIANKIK
Text: Compounds can be tested using the commercially available kit from Eurofins “TRPM8 Human Transient Potential Ion Channel Cell Based Agonist Calcium Flux Assay, Cerep” item #3316, or using the assay, referenced by Eurofins, and described in Behrendt et al. “Characterization of the mouse cold-menthol receptor TRPM8 and vanilloid receptor type-1 VR1 using a fluorometric imaging plate reader (FLIPR) assay,” Br J Pharmacol. 2004 Feb;141(4):737-45, which are each incorporated herein by reference. […] 4.
The assay is done at room temperature and measures calcium flux.

[4] = molecular target: T1, TRPM8; details: reported by the Eurofins website; cited from earlier work
[5] = control activator ligand icilin

Sequence of mouse cold-menthol receptor TRPM8 (Q8R4D5 whole entry): as the sequence (Q8R4D5 whole entry) above

Emax [3, 5]: > 100% | EC50 [3]: < 0.5 µM
Compound: CC(C)[C@@H]1CC[C@@H](C)C[C@H]1C(=O)NC12CC(NC(=O)CO)(C1)C2 [Compound 47]

Emax [3, 5]: > 50% | EC50 [3]: < 10 µM
Compound: CC(C)[C@@H]1CC[C@@H](C)C[C@H]1C(=O)NC1CCC(S(C)(=O)=O)C1 (some centres unmarked) [Compound 106]

Emax [3, 5]: > 75% | EC50 [3]: < 1 µM
Compound: COCCN1CC(NC(=O)[C@@H]2C[C@H](C)CC[C@H]2C(C)C)C1 [Compound 26]

Emax [3, 5]: > 75% | EC50 [3]: < 0.5 µM
Compound: CC(C)[C@@H]1CC[C@@H](C)C[C@H]1C(=O)N[C@H]1CCC(F)(F)C1 [Compound 94]

Emax [3, 5]: > 75% | EC50 [3]: < 10 µM
Compound: CC(C)[C@@H]1CC[C@@H](C)C[C@H]1C(=O)NC1CN(CCO)C1 [Compound 28]

Emax [3, 5]: > 50% | EC50 [3]: < 0.5 µM
Compound: COC1CC(NC(=O)[C@@H]2C[C@H](C)CC[C@H]2C(C)C)C1 (some centres unmarked) [Compound 48]

Emax [3, 5]: > 75% | EC50 [3]: < 1 µM
Compound: CC(C)[C@@H]1CC[C@@H](C)C[C@H]1C(=O)NC12CCC(C(F)(F)F)(CC1)C2 [Compound 59]

Emax [3, 5]: > 100% | EC50 [3]: < 0.5 µM
Compound: CC(C)[C@@H]1CC[C@@H](C)C[C@H]1C(=O)NC12CCC(CO)(CC1)C2 [Compound 46]

Emax [3, 5]: > 75% | EC50 [3]: < 0.1 µM
Compound: COC12CC(NC(=O)[C@@H]3C[C@H](C)CC[C@H]3C(C)C)(C1)C2 [Compound 25]

Percent Agonist [3, 5]: 100% | EC50 [3]: 0.024 µM
Compound: COc1ccc(NC(=O)[C@@H]2C[C@H](C)CC[C@H]2C(C)C)cc1 [Compound 1]

Emax [3, 5]: > 50% | EC50 [3]: < 0.1 µM
Compound: COc1ccc(NC(=O)[C@@H]2C[C@H](C)CC[C@H]2C(C)C)cn1 [Compound 74]

Emax [3, 5]: > 100% | EC50 [3]: < 1 µM
Compound: CC(C)[C@@H]1CC[C@@H](C)C[C@H]1C(=O)NC12CC(F)(C1)C2 [Compound 29]

Emax [3, 5]: > 75% | EC50 ([3]; no unit printed in this row): < 10 µM
Compound: CC(C)[C@@H]1CC[C@@H](C)C[C@H]1C(=O)NC(=N)N [Compound 69]

Emax [3, 5]: > 75% | EC50 [3]: < 5 µM
Compound: CC(C)[C@@H]1CC[C@@H](C)C[C@H]1C(=O)NC12CC(C#N)(C1)C2 [Compound 27]

Emax [3, 5]: > 75% | EC50 [3]: < 10 µM
Compound: CC(C)[C@@H]1CC[C@@H](C)C[C@H]1C(=O)NCC1(C#N)CC1 [Compound 93]

Emax [3, 5]: > 75% | EC50 [3]: < 10 µM
Compound: CC(C)[C@@H]1CC[C@@H](C)C[C@H]1C(=O)NCCC#N [Compound 99]

EC50 [3]: > 10 µM
Compound: CC(C)[C@@H]1CC[C@@H](C)C[C@H]1C(=O)NCC#N [Compound 97]

Emax [3, 5]: > 35%
Compound: CC(C)[C@@H]1CC[C@@H](C)C[C@H]1C(=O)NN1CCOCC1 [Compound 100]

EC50 [3]: > 10 µM
Compound: CC(C)[C@@H]1CC[C@@H](C)C[C@H]1C(=O)NC12CC(C(=O)O)(C1)C2 [Compound 53]

Emax [3, 5]: > 75% | EC50 [3]: < 0.1 µM
Compound: COC12CCC(NC(=O)[C@@H]3C[C@H](C)CC[C@H]3C(C)C)(CC1)CC2 [Compound 55]

Emax [3, 5]: > 100% | EC50 [3]: < 1 µM
Compound: CC(C)[C@@H]1CC[C@@H](C)C[C@H]1C(=O)NC12CC(CO)(C1)C2 [Compound 33]

Emax [3, 5]: > 75% | EC50 [3]: < 0.5 µM
Compound: CC(C)[C@@H]1CC[C@@H](C)C[C@H]1C(=O)N[C@@H]1CCC(F)(F)C1 [Compound 98]

Further lines, the compound ahead of its results:

Compound: CC(C)[C@@H]1CC[C@@H](C)C[C@H]1O [(−)menthol]
EC50 [1]: 4.1 ± 1.3 µM

Compound: CNC(=O)C(C)(C(C)C)C(C)C [WS-23]
EC50 [1]: 44 ± 7.3 µM

Compound: CC(CC=O)CCCC(C)(C)O (centres unmarked) [hydroxycitronellal]
EC50 [1]: 19600 ± 2200 µM

Compound: CC12CCC(CC1)C(C)(C)O2 [eucalyptol]
EC50 [1]: 7700 ± 2000 µM

Compound: C=CC(C)(O)CCC=C(C)C (centres unmarked) [linalool]
EC50 [1]: 6700 ± 2000 µM

Compound: C=C(C)[C@@H]1CC[C@@H](C)C[C@H]1O [Coolact P]
EC50 [1]: 66 ± 20 µM

Compound: CC(C)=CCC/C(C)=C/CO [geraniol]
EC50 [1]: 5900 ± 1600 µM

Compound: CC(C)(C)c1ccc(NC(=O)N2CCN(c3ncccc3Cl)CC2)cc1 [BCTC, 4-(3-Chloro-2-pyridinyl)-N-[4-(1,1-dimethylethyl)phenyl]-1-piperazinecarboxamide]
IC50 [2]: 0.8 ± 1 µM

Compound: CC(C)[C@@H]1CC[C@@H](C)C[C@H]1C(=O)Nc1ccc(N2CCOCC2)nc1 [Compound 73]
Emax [3, 5]: > 50% | EC50 [3]: < 0.1 µM

Compound: COCCOc1ccc(NC(=O)[C@@H]2C[C@H](C)CC[C@H]2C(C)C)cc1 [Compound 3]
Emax [3, 5]: > 75% | EC50 [3]: < 0.5 µM

Compound: COc1ncc(NC(=O)[C@@H]2C[C@H](C)CC[C@H]2C(C)C)cc1C [Compound 88]
Emax [3, 5]: > 35% | EC50 [3]: < 5 µM

Compound: CC(C)[C@@H]1CC[C@@H](C)C[C@H]1C(=O)Nc1ccc(CO)cc1 [Compound 15]
Emax [3, 5]: > 75% | EC50 [3]: < 0.1 µM

Compound: CC(C)(C)c1ccc(NC(=S)N2CCN(c3ncccc3Cl)CC2)cc1 [thio-BCTC]
IC50 [2]: 3.5 ± 1.1 µM

Compound: CC(C)[C@@H]1CC[C@@H](C)C[C@H]1C(=O)Nc1ccnc(CN(C)C)c1 [Compound 77]
Emax [3, 5]: > 50% | EC50 [3]: < 5 µM

Compound: CC(C)[C@@H]1CC[C@@H](C)C[C@H]1C(=O)Nc1cncc(Cl)c1 [Compound 80]
Emax [3, 5]: > 75% | EC50 [3]: < 1 µM

Compound: CC1CCC(C(C)C)C2(C1)OCC(CO)O2 (centres unmarked) [frescolatMAG]
EC50 [1]: 4.8 ± 1.1 µM

Compound: CC(C)[C@@H]1CC[C@@H](C)C[C@H]1C(=O)Nc1cnn(CCO)c1 [Compound 70]
Emax [3, 5]: > 75% | EC50 [3]: < 1 µM

Compound: CC(C)[C@@H]1CC[C@@H](C)C[C@H]1C(=O)Nc1ccc(C2(O)COC2)cc1 [Compound 21]
Emax [3, 5]: > 75% | EC50 [3]: < 0.1 µM

Compound: CC(C)[C@@H]1CC[C@@H](C)C[C@H]1C(=O)Nc1cccc(C2(O)COC2)c1 [Compound 23]
Emax [3, 5]: > 75% | EC50 [3]: < 0.5 µM

Compound: CC(C)[C@@H]1CC[C@@H](C)C[C@H]1C(=O)N1CC(C)(CC(F)F)C1 [Compound 95]
EC50 [3]: > 10 µM

Compound: CC1CCC(C(C)C)C(OCC(O)CO)C1 (centres unmarked) [cooling agent 10]
EC50 [1]: 6 ± 2.2 µM

Compound: COC(=O)Cn1cc(NC(=O)[C@@H]2C[C@H](C)CC[C@H]2C(C)C)cn1 [Compound 68]
Emax [3, 5]: > 75% | EC50 [3]: < 7.5 µM

Compound: CCOC(=O)CC1(c2ccc(NC(=O)[C@@H]3C[C@H](C)CC[C@H]3C(C)C)cc2)COC1 [Compound 24]
Emax [3, 5]: > 100% | EC50 [3]: < 0.5 µM

Compound: CC(C)[C@@H]1CC[C@@H](C)C[C@H]1C(=O)Nc1ccc(Cl)cn1 [Compound 86]
Emax [3, 5]: > 100% | EC50 [3]: < 5 µM

Compound: CCNC(=O)C1CC(C)CCC1C(C)C (centres unmarked) [WS-3]
EC50 [1]: 3.7 ± 1.7 µM

Compound: CC(C)[C@@H]1CC[C@@H](C)C[C@H]1C(=O)Nc1ccc(N2CCOCC2)cc1 [Compound 18]
Emax [3, 5]: > 50% | EC50 [3]: < 0.1 µM

Compound: CC(C)[C@@H]1CC[C@@H](C)C[C@H]1C(=O)Nc1ccc(OCCN2CCCC2)cc1 [Compound 19]
Emax [3, 5]: > 75% | EC50 [3]: < 0.5 µM

Compound: C[C@@H]1CC[C@@H](C(C)(C)O)[C@H](O)C1 [PMD38]
EC50 [1]: 31 ± 1.1 µM

Compound: COCCOCCOc1ccc(NC(=O)[C@@H]2C[C@H](C)CC[C@H]2C(C)C)cc1 [Compound 5]
Emax [3, 5]: > 75% | EC50 [3]: < 0.5 µM

Compound: O=C1NC(c2cccc([N+](=O)[O-])c2)=CCN1c1ccccc1O [icilin]
EC50 [4]: 0.028 µM

Compound: CC(O)C(=O)O[C@@H]1C[C@H](C)CC[C@H]1C(C)C (some centres unmarked) [FrescolatML]
EC50 [1]: 3.3 ± 1.5 µM

Compound: CC(C)[C@@H]1CC[C@@H](C)C[C@H]1C(=O)Nc1ccc(N2CCN(C)CC2)cc1 [Compound 2]
Emax [3, 5]: > 100% | EC50 [3]: < 0.5 µM

Compound: CCOc1ccc(NC(=O)[C@@H]2C[C@H](C)CC[C@H]2C(C)C)cn1 [Compound 76]
Emax [3, 5]: > 50% | EC50 [3]: < 0.1 µM

Compound: CC(C)[C@H]1CC[C@H](C)C[C@@H]1O [(+)menthol]
EC50 [1]: 14.4 ± 1.3 µM

Compound: CNC(=O)c1cc(OC)ccc1NC(=O)[C@@H]1C[C@H](C)CC[C@H]1C(C)C [Compound 61]
Emax [3, 5]: > 75% | EC50 [3]: < 0.1 µM

Compound: Oc1cc2c(cc1O)CN(C(=S)NCCc1ccc(Cl)cc1)CCC2 [capsazepine]
IC50 [2]: 18 ± 1.1 µM
